SMILES strings stand for the structures.

Compound `CCn1cc(C(=O)O)c(=O)c2cc(F)c(N3CCNCC3)c(OC)c21` gave a melting point of 169 °C. Next, `Cc1cc(O)n2nc(SCc3ccccc3)nc2c1`: 214 to 216 °C; `CCC(C)C(C(=O)O)N1C(=O)C2C3C=CC(C3)C2C1=O` (stereo unspecified): 109 °C.

Regarding `Cc1nnc(-c2ccc3occ(-c4ccc(S(=O)(=O)CF)cc4)c3c2)o1`, the melting point fell in the range of 191 to 192 °C. For `Fc1ccc(OCCN2CCC(CNc3nc4ccccc4s3)CC2)cc1` the value was 117 °C; for `CCCCC[C@H]1CC[C@H](c2nc(Cl)c(OC)c(Cl)n2)CC1`, 29.5 to 30.4 °C; for `CCCc1nc(C)c2c(=O)[nH]c(N)nn12`, 266 °C. Next, `CCCCCCC1c2sccc2CCN1CCNC(=O)c1ccc(NS(C)(=O)=O)cc1` (stereo unspecified): 132 to 134 °C; `CSC(=S)Oc1cnc(C)c2c1COC(C)(C)O2`: 88 to 90 °C; `COc1ccc(CCCc2c[nH]c(C(=O)N3CCC[C@@H]3C(=O)N[C@H]3CC(=O)O[C@@H]3OCc3ccccc3)n2)cc1`: 62 to 65 °C. Next, `CN1CC(CCNC(=S)NC(=O)c2ccccc2)CC2c3cccc4[nH]cc(c34)CC21` (stereo unspecified): 205 to 207 °C. On to `C#CC[C@H](c1nc2cc(Cl)ccc2c(=O)n1Nc1ccccc1)N(CCCN)C(=O)c1cccc(Cl)c1F`, for which the melting point lay within 101 to 103 °C.

In the case of `O=C1NC(=O)C(c2cn3c4c(cccc24)CCC3)=C1c1ccc(F)cc1`, the melting point lay within 234 to 235 °C. Take `CCCOC(=O)CS(=O)(=O)C=C1SC=CS1`: the melting point lay in the range of 141 to 142 °C. Next, `CCc1nc2c(N)nc3cc(OCCNC(=O)NC(C)C)ccc3c2n1CC1CCOCC1`: 223 to 225 °C; `COc1ccc2nc(N3CCN(C[C@H]4COc5ccc6nc(C)ccc6c5O4)CC3)ccc2c1`: 95 to 97 °C. For `c1cnc2cc3c(cc2n1)CCNCC3` the value was 114 to 116 °C; for `N#CC(c1ccccc1)(c1ccccc1)n1ccnc1`, 95 to 98 °C. For `CC(=O)n1nc(C)c(Oc2cc(Cl)cc(Cl)c2)c1C` the value was less than 60 °C; for `COc1ccccc1N1CCN(CCCCNc2cc(Cl)nnc2OC)CC1`, 139 to 150 °C. Turning to `CCc1nc2c(N)nc3ccc(OCc4ccccc4)cc3c2n1C`, the melting point is 238 to 239 °C. For `CCc1nnc2c(NC3CC3)nc3ccccc3n12` the value was 190 to 192 °C; for `NN1CCC2(CC1)OC(c1ccccc1)c1ccccc12` (stereo unspecified), 143 to 145 °C; for `CCCCCCOc1ccc(NS(=O)(=O)c2ccc(N3CCNC3=O)cc2)cc1`, 225 to 226 °C. For `CC(C#Cc1cccc(Oc2nccs2)c1)N(O)C(N)=O` (stereo unspecified) the value was 118 to 119 °C; for `CC[Si](C#CC1(COCc2ccccc2)OC(n2ccc(=O)[nH]c2=O)C(O)C1OCc1ccccc1)(CC)CC` (stereo unspecified), 119 to 120 °C. On to `Cc1ccc(COc2cccnc2NC(=S)Nc2ccc(Cl)cc2)cc1`, for which the melting point fell in the range of 145 to 147 °C. Next, `Nc1nc2c(s1)CCN(CC=Cc1c[nH]c3ccccc13)CC2`: 155 to 160 °C. Next, `O=c1oc(-c2ccc([N+](=O)[O-])cc2)nn1-c1ccc(C(F)(F)F)cc1`: 160 to 163 °C; `Cc1ccc(SCC(=O)O)o1`: 35 to 36 °C. Next, `Cc1ccc(CCc2ccccc2)c(OCC[C@@H]2C[C@@H](O)CN2C)c1`: 97 to 100 °C.

Turning to `CN(C)c1nc(N)c(-c2cc(Cl)cc(Cl)c2Cl)c(C(F)(F)F)n1`, the melting point lay in the range of 124 to 126 °C.

As to `O=C(Nc1ccc2ccc(Cl)nc2n1)C1=CSCCO1`, the melting point amounted to 270 °C. Next, `CO[C@@H]1CN(CCCNc2nccc(=O)[nH]2)CC[C@@H]1NC(=O)c1cc(Cl)c(N)c2c1OC(C)(C)C2`: 164 °C; `CC(C)(C)OC(=O)NCCc1cccc(OCCC2Oc3ccccc3N(Cc3ccc(Cl)cc3)C2=O)c1` (stereo unspecified): 97 to 98.5 °C.

For the compound `O=C(O)C(c1ccc2c(c1)OCO2)n1nc(-c2ccccn2)ccc1=O` (stereo unspecified), the melting point worked out at 115 °C.

With `CCn1c(C)c(C2(c3ccc(OC)cc3OC)OC(=O)c3cc(N(C)C)ccc32)c2ccccc21` (stereo unspecified), the melting point fell in the range of 215 to 217 °C.

`CC(=O)c1ccc(NS(C)(=O)=O)c(Nc2ccc(F)cc2F)c1` gave a melting point of 113 to 115 °C.

In turn, `O=C(NCCc1ccc(F)cc1)OCC1CCCCC1` gave a melting point of 44 to 45 °C.

`Cc1cc(C)c(NC(=O)C2c3ccccc3COc3ccc(C)cc32)c(C)c1` (stereo unspecified): the melting point was in the range of 148 to 149 °C. For `CCc1nn(C)c2c1C(c1ccccc1)=NCC(C(=NO)C(=O)OC)=N2` the value was 225 to 227 °C; for `CC(C)C[C@H](NC(=O)[C@H](Cc1c[nH]cn1)NC(=O)[C@H](Cc1ccccc1)NC(=O)OCc1ccccc1)[C@H](O)CO`, 159 to 162 °C. For `NC(=O)N1C(=O)C(=C(OC(=O)c2ccco2)c2cccs2)c2cc(F)c(Cl)cc21` the value was 215 to 216 °C; for `Cc1cccc(O)c1S(N)(=O)=O`, 126 °C; for `Cn1c(CNCC2CCOCC2)cc2cc(NC(=O)c3ccc(OCC4CCOC4)cc3)ccc21` (stereo unspecified), 153 to 154 °C. For `CCOC(=O)CCCCNc1ccc2c(c1)CCC2` the value was 61 to 63 °C. Take `CCOP(=O)(Cc1ccc(NC(=O)CCc2conc2-c2ccc(Cl)cc2)cc1)OCC`: the melting point lay in the range of 88 to 90 °C.

Regarding `Cn1cc(CC#N)c2cc([N+](=O)[O-])ccc21`, the melting point was in the range of 165 to 166 °C. For `Clc1ccc(NC2COc3ccc(Br)cc32)c(Cl)c1` (stereo unspecified) the value was 112 to 113 °C. Next, `O=C(C1CCCC1)N1C=C2c3ccccc3C3CC2(C1)c1ccccc13` (stereo unspecified): 185 to 186 °C; `CC12CCC(=O)C=C1CCC1C3CC(OCCO)C(O)(C(=O)CO)C3(C)CC(O)C12F` (stereo unspecified): 162 to 165 °C; `COC(=O)C1=NN(c2ccc(F)cc2)C(C)(C(=O)OC)C1` (stereo unspecified): 114 to 118 °C.

`CC(=O)Nc1ccc(N2CC(CNC(C)=S)OC2=O)cc1F` (stereo unspecified) had a melting point of 200 to 201 °C. Next, `CC(C)C(c1ccc2[nH]c(=O)cnc2c1)n1ccnc1` (stereo unspecified): 194 °C; `CCN(C(=O)c1ccccc1)C(=NC(=O)c1ccccc1)NCc1ccc(S(N)(=O)=O)cc1`: 70 to 80 °C. For `Nc1nc(NC2CC2)c2ncn([C@@H]3C[C@H](CO)[C@@H](O)C3)c2n1`, the melting point lay within 174 to 176 °C. In the case of `CC(=O)Nc1cc2c(cc1C#N)C(Nc1ccc(C(=O)OC(C)(C)C)cc1)CC2` (stereo unspecified), the melting point was in the range of 173 to 174 °C. For `C=Cc1ccncc1C#N` the value was 56 to 57 °C; for `C=C(Cc1ccccc1C)C(=O)O`, 82 to 83 °C. For `CC1CCCN1CCCOc1ccc(C2CCC(O)CC2)cc1` (stereo unspecified) the value was 80 °C; for `COc1ccc2c(c1)C13CCN(C)C(C2)C1(O)C=CC(=O)C3` (stereo unspecified), 213 to 215 °C.

`CCOC(=O)CCn1c(-c2ccccc2)c(-c2ccccc2)n(-c2ccccc2)c1=O`: the melting point was in the range of 111 to 112 °C.

As for `O=C(O)c1cc([N+](=O)[O-])c(-c2ccccc2)c([N+](=O)[O-])c1`, the melting point was in the range of 219 to 221 °C.

In turn, `O=C1CCCN1C(=O)NCCS(=O)c1ccccn1` (stereo unspecified) showed a melting point of 120 °C. Consider `Oc1nc(Cl)c(Cl)cc1Cl`, for which the melting point was 168 to 170 °C.

The compound `CCCCCCNC1=NS(=O)(=O)c2ccc(Cl)cc2N1` yielded a melting point of 244 to 247 °C. Next, `N#Cc1ccc(-n2c(=O)cc(C(F)(F)F)[nH]c2=O)cc1[N+](=O)[O-]`: 135 °C; `CSCC1(c2onc(-c3ccc(O)cc3)c2-c2ccccc2)CC1`: 176 to 177 °C; `O=C(O)c1cc(Cl)cc2ccoc12`: 212 to 215 °C.

The compound `CC(C)(CCl)C(=O)N(O)Cc1ccccc1F` returned a melting point of 110 to 112 °C. Compound `CCCCCCCCCCCCCC(=O)O[C@H](CCCCCCCCCCC)CC(=O)N[C@@H](CO)C(=O)OCc1ccccc1` had a melting point of 56 to 61 °C.

The compound `Nc1ccc(Sc2ccccc2)cc1Br` gave a melting point of 61 to 63 °C. For `CCCCOC(=O)c1cc([N+](=O)[O-])ccc1N` the value was 91 to 93 °C. `CN1CCOc2cc(O)ccc21`: the melting point lay within 84 to 87 °C. The compound `NS(=O)(=O)c1cc(C(F)(F)F)cc(C(F)(F)F)c1` registered a melting point of 183 to 185 °C. `O=C(O)COc1ccc2c(c1)C[C@H](NC[C@H](O)c1cccc(Cl)c1)CCC2` displayed a melting point of 265 to 266 °C. In the case of `CC(C)CC(=O)Oc1n[nH]c(=O)c2nc3cc(Cl)ccc3c(O)c12`, the melting point was greater than 400 °C.

With `O=C(O)Cc1ccc(-n2cc(Cl)cn2)cc1Cl`, the melting point lay within 152 to 153 °C.

As for `O=C(Nc1ccc(Br)c(C(F)(F)F)c1)c1ccccc1[N+](=O)[O-]`, the melting point fell in the range of 157 to 158 °C.

`CNC(=O)N1CC(Oc2ccc(Cl)c(Cl)c2)C1` displayed a melting point of 158 to 159 °C. Next, `COc1ccccc1Cc1cnc(NCCSCc2nc[nH]c2C)[nH]c1=O`: 163 to 167 °C. For `Cc1nn(-c2ccccn2)c2[nH]c3ccc(S(C)(=O)=O)cc3c(=O)c12` the value was greater than 300 °C; for `Cc1cc(-c2ccc(C(=O)N3CCN(S(=O)(=O)c4ccc5cc(Br)ccc5c4)CC3)cc2)ccn1`, 204 to 205 °C. For `Cn1cc(/C=C/c2ccc3ccccc3n2)cc1C(=O)O` the value was greater than 230 °C; for `CCCOc1ccc(COCCO)cc1-c1nc2c(CCC)nn(C)c2c(=O)[nH]1`, 101 to 102 °C. Take `CC(=O)NCC1CC(c2ccc(C3=CCN(C(=O)OC(C)(C)C)CC3)cc2)=NO1` (stereo unspecified): the melting point is 117 to 120 °C. For `CN(C)c1ccc(-c2n[nH]c3c2c(=O)n(-c2ccccc2)c2ncccc32)cc1` the value was greater than 300 °C; for `COn1c(C(C)C)nc2c(N)nc3ccccc3c21`, 217 to 219 °C; for `Cc1cc(-c2ccc(S(C)(=O)=O)cc2)n(-c2ccc(C)c(C)c2)c1`, 126 to 128 °C. With `O=C(O)c1cc(Oc2ccc(C(F)(F)F)cc2Cl)ccc1Cl`, the melting point was 103 to 104 °C. For `CCOC(=O)CCc1ccc2cc(O)ccc2n1` the value was 126 to 128 °C.

(Values after a melting point compilation (Tetko et al.; mined from patent text by program, amines drawn as free bases though some values may be those of a salt).)
